Measurements as given in PubChem BioAssay AID1845199 (Molecular Pharmacology Branch, DTP, NCI, 2023).

System: 556581-035-R-J1 tumor spheroid viability, % test/control
Assay: Anticancer human tumor 556581-035-R-J1 patient-derived ovarian carcinoma cell line growth inhibition
Settings: spheroids with HUVEC and MSC; for viability, T/C: stronger effect = lower value
In short: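 Complex tumor spheroids combined malignant cells with endothelial cells and mesenchymal stem cells. DNA-damaging drugs and DNA repair inhibitors were tested alone and in combination, at half-log dilutions down from clinical Cmax (top 10 microM if Cmax unknown), 0.25% DMSO final.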

[1] = curve of first compound, second compound 0.003 µM
[2] = curve of first compound, second compound 0.00949 µM
[3] = curve of first compound, second compound 0.03 µM
[4] = curve of first compound, second compound 0.0949 µM
[5] = curve of first compound, second compound 0.3 µM
[6] = second compound 0.003 µM, first compound 0.0316 µM
[7] = second compound 0.003 µM, first compound 0.1 µM
[8] = second compound 0.003 µM, first compound 0.316 µM
[9] = second compound 0.003 µM, first compound 1 µM
[10] = second compound 0.003 µM, first compound 3.16 µM
[11] = second compound 0.003 µM, first compound 10 µM
[12] = second compound 0.00949 µM, first compound 0.0316 µM
[13] = second compound 0.00949 µM, first compound 0.1 µM
[14] = second compound 0.00949 µM, first compound 0.316 µM
[15] = second compound 0.00949 µM, first compound 1 µM
[16] = second compound 0.00949 µM, first compound 3.16 µM
[17] = second compound 0.00949 µM, first compound 10 µM
[18] = second compound 0.03 µM, first compound 0.0316 µM
[19] = second compound 0.03 µM, first compound 0.1 µM
[20] = second compound 0.03 µM, first compound 0.316 µM
[21] = second compound 0.03 µM, first compound 1 µM
[22] = second compound 0.03 µM, first compound 3.16 µM
[23] = second compound 0.03 µM, first compound 10 µM
[24] = second compound 0.0949 µM, first compound 0.0316 µM
[25] = second compound 0.0949 µM, first compound 0.1 µM
[26] = second compound 0.0949 µM, first compound 0.316 µM
[27] = second compound 0.0949 µM, first compound 1 µM
[28] = second compound 0.0949 µM, first compound 3.16 µM
[29] = second compound 0.0949 µM, first compound 10 µM
[30] = second compound 0.3 µM, first compound 0.0316 µM
[31] = second compound 0.3 µM, first compound 0.1 µM
[32] = second compound 0.3 µM, first compound 0.316 µM
[33] = second compound 0.3 µM, first compound 1 µM
[34] = second compound 0.3 µM, first compound 3.16 µM
[35] = second compound 0.3 µM, first compound 10 µM
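Also: spheroids exposed to compounds for 7 days before viability read.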

Structure (SMILES): O=C(c1cc(Cc2n[nH]c(=O)c3ccccc23)ccc1F)N1CCN(C(=O)C2CC2)CC1 + COc1cc2c(cc1O)CCNC21CSC2c3c(OC(C)=O)c(C)c4c(c3C(COC1=O)N1C(O)C3Cc5cc(C)c(OC)c(O)c5C(C21)N3C)OCO4
- IC50 (curve of first compound, second compound 30 pM): > 30 µM
- IC50 (curve of first compound, second compound 94.9 pM): > 30 µM
- IC50 (curve of first compound, second compound 0.0003 µM): > 30 µM
- IC50 (curve of first compound, second compound 0.000949 µM): < 0.0949 µM
- IC50 [1]: < 0.0949 µM
- viability, T/C (second compound 30 pM, first compound 0.0949 µM): 104%
- viability, T/C (second compound 30 pM, first compound 0.3 µM): 105%
- viability, T/C (second compound 30 pM, first compound 0.949 µM): 103%
- viability, T/C (second compound 30 pM, first compound 3 µM): 93.7%
- viability, T/C (second compound 30 pM, first compound 9.49 µM): 79.7%
- viability, T/C (second compound 30 pM, first compound 30 µM): 63.5%
- viability, T/C (second compound 94.9 pM, first compound 0.0949 µM): 98.1%
- viability, T/C (second compound 94.9 pM, first compound 0.3 µM): 103%
- viability, T/C (second compound 94.9 pM, first compound 0.949 µM): 96.2%
- viability, T/C (second compound 94.9 pM, first compound 3 µM): 90%
- viability, T/C (second compound 94.9 pM, first compound 9.49 µM): 75.6%
- viability, T/C (second compound 94.9 pM, first compound 30 µM): 63%
- viability, T/C (second compound 0.0003 µM, first compound 0.0949 µM): 89.5%
- viability, T/C (second compound 0.0003 µM, first compound 0.3 µM): 88.7%
- viability, T/C (second compound 0.0003 µM, first compound 0.949 µM): 88.6%
- viability, T/C (second compound 0.0003 µM, first compound 3 µM): 87.2%
- viability, T/C (second compound 0.0003 µM, first compound 9.49 µM): 66.8%
- viability, T/C (second compound 0.0003 µM, first compound 30 µM): 50.1%
- viability, T/C (second compound 0.000949 µM, first compound 0.0949 µM): 35%
- viability, T/C (second compound 0.000949 µM, first compound 0.3 µM): 27.9%
- viability, T/C (second compound 0.000949 µM, first compound 0.949 µM): 27.9%
- viability, T/C (second compound 0.000949 µM, first compound 3 µM): 23.4%
- viability, T/C (second compound 0.000949 µM, first compound 9.49 µM): 7.48%
- viability, T/C (second compound 0.000949 µM, first compound 30 µM): 1.51%
- viability, T/C (second compound 0.003 µM, first compound 0.0949 µM): 0.86%
- viability, T/C (second compound 0.003 µM, first compound 0.3 µM): 0.88%
- viability, T/C (second compound 0.003 µM, first compound 0.949 µM): 0.88%
- viability, T/C (second compound 0.003 µM, first compound 3 µM): 1.14%
- viability, T/C (second compound 0.003 µM, first compound 9.49 µM): 1.42%
- viability, T/C (second compound 0.003 µM, first compound 30 µM): 2.1%

Structure (SMILES): COc1cc2c(cc1O)CCNC21CSC2c3c(OC(C)=O)c(C)c4c(c3C(COC1=O)N1C(O)C3Cc5cc(C)c(OC)c(O)c5C(C21)N3C)OCO4 (stereo not given)
- viability, T/C (compound 94.9 pM): 106% [middle of 10 runs]
- viability, T/C (compound 0.0003 µM): 95.4% [middle of 10 runs]
- viability, T/C (compound 0.000949 µM): 41% [middle of 10 runs]
- viability, T/C (compound 0.003 µM): 0.66% [middle of 10 runs]
- IC50 (compound alone, run of 10/25/2019): 0.795 nM [middle of 10 runs]

Structure (SMILES): Cc1cc(C)c(CNC(=O)c2cc(-c3ccc(CN4CCOCC4)cc3)cc3c2cnn3C2CCCC2)c(=O)[nH]1 + CC[C@@]1(O)C(=O)OCc2c1cc1n(c2=O)Cc2cc3c(CN(C)C)c(O)ccc3nc2-1
- IC50 [1]: > 10 µM
- IC50 [2]: > 10 µM
- IC50 [3]: > 10 µM
- IC50 [4]: 4.51 µM
- IC50 [5]: < 0.0316 µM
- viability, T/C [6]: 97%
- viability, T/C [7]: 85.4%
- viability, T/C [8]: 89%
- viability, T/C [9]: 84%
- viability, T/C [10]: 99.7%
- viability, T/C [11]: 87.4%
- viability, T/C [12]: 95.9%
- viability, T/C [13]: 87.7%
- viability, T/C [14]: 78.8%
- viability, T/C [15]: 72.5%
- viability, T/C [16]: 87.4%
- viability, T/C [17]: 83.8%
- viability, T/C [18]: 74.2%
- viability, T/C [19]: 72.9%
- viability, T/C [20]: 70.3%
- viability, T/C [21]: 67.1%
- viability, T/C [22]: 66.8%
- viability, T/C [23]: 70.4%
- viability, T/C [24]: 60.1%
- viability, T/C [25]: 56.6%
- viability, T/C [26]: 57.1%
- viability, T/C [27]: 56.3%
- viability, T/C [28]: 53.5%
- viability, T/C [29]: 43.1%
- viability, T/C [30]: 19.3%
- viability, T/C [31]: 22.9%
- viability, T/C [32]: 19.6%
- viability, T/C [33]: 19.2%
- viability, T/C [34]: 15.6%
- viability, T/C [35]: 11.3%

Structure (SMILES): CC(C)n1c(=O)n(C)c2cnc3cc(F)c(-c4ccc(OCCCN5CCCCC5)nc4)cc3c21 + CC[C@@]1(O)C(=O)OCc2c1cc1n(c2=O)Cc2cc3c(CN(C)C)c(O)ccc3nc2-1
- IC50 [1]: > 10 µM
- IC50 [2]: > 10 µM
- IC50 [3]: > 10 µM
- IC50 [4]: 3.37 µM
- IC50 [5]: < 0.0316 µM
- viability, T/C [6]: 84.2%
- viability, T/C [7]: 85.9%
- viability, T/C [8]: 80.6%
- viability, T/C [9]: 82.4%
- viability, T/C [10]: 62%
- viability, T/C [11]: 60.6%
- viability, T/C [12]: 81.9%
- viability, T/C [13]: 76.4%
- viability, T/C [14]: 77.6%
- viability, T/C [15]: 77%
- viability, T/C [16]: 72.7%
- viability, T/C [17]: 58.9%
- viability, T/C [18]: 75%
- viability, T/C [19]: 73.5%
- viability, T/C [20]: 71%
- viability, T/C [21]: 72.1%
- viability, T/C [22]: 66.5%
- viability, T/C [23]: 54.5%
- viability, T/C [24]: 49.7%
- viability, T/C [25]: 51.4%
- viability, T/C [26]: 51.7%
- viability, T/C [27]: 55.3%
- viability, T/C [28]: 50.3%
- viability, T/C [29]: 36.8%
- viability, T/C [30]: 12.3%
- viability, T/C [31]: 12.5%
- viability, T/C [32]: 13.1%
- viability, T/C [33]: 13.6%
- viability, T/C [34]: 12.1%
- viability, T/C [35]: 11.6%
